Experimental findings from PMC2873968, “Novel protein kinase D inhibitors cause potent arrest in prostate cancer cell growth and motility” (BMC Chemical Biology, 2010) are described below.

In one experiment the target is T1, PKD1 (Homo sapiens, UniProt Q15139).
T1 sequence (Q15139 1-912): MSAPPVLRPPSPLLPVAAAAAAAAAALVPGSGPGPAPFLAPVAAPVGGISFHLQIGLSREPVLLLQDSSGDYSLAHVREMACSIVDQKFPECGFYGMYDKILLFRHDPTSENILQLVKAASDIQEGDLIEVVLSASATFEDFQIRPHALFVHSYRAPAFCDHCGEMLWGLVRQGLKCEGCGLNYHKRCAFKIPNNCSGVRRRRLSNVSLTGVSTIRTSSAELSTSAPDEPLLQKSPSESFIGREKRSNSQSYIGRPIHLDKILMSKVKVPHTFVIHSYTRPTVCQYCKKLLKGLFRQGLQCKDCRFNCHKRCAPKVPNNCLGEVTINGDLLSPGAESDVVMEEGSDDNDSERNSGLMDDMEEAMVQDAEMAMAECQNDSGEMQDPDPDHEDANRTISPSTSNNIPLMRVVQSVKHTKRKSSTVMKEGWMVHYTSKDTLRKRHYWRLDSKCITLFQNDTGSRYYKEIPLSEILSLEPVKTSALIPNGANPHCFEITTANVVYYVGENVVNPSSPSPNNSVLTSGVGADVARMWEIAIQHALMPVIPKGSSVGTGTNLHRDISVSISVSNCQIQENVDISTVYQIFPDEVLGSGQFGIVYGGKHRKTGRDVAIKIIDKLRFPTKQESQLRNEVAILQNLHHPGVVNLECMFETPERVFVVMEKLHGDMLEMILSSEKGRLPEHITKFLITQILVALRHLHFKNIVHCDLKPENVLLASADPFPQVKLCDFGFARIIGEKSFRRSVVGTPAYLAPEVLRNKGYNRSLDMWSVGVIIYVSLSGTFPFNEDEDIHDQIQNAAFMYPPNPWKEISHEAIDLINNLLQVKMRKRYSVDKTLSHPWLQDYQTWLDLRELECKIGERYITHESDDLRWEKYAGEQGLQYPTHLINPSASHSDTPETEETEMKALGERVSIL
Put plainly: Inhibition of PMA-induced endogenous PKD1 activation in LNCaP cells (Western blot). To be noted: 45 min pretreatment, 100 nM PMA 20 min, densitometry of Western blots, mean ± S.E.M., read-out: Cellular IC50, inhibition of PKD1 autophosphorylation at S916. The class given is cell-based. Further details: endogenous in cells; host or cells: LNCaP. As for the experimental part: LNCaP cells were maintained as described previously. Western blot analysis was carried out as previously reported. Briefly, cells were lysed in lysis buffer containing 200 mM Tris-HCl, pH 7.4, 100 μM 4-(2-aminoethyl) benzenesulfonyl fluoride, 1 mM EGTA, and 1% Triton X-100. Protein concentration was determined using the BCA Protein Concentration Assay reagent kit (Pierce) and then equal amounts of protein were subjected to SDS-PAGE followed by electrotransfer to nitrocellulose membranes. Membranes were blocked with 5% nonfat milk in Tris-buffered saline and then probed with primary antibodies for either p-S916-PKD1 (Millipore), p-S742-PKCμ/PKD (Biosource), or GAPDH, followed by anti-mouse or anti-rabbit secondary antibodies conjugated to horseradish peroxidase (Bio-Rad). The enhanced chemiluminescence (ECL) Western blotting detection system (Amersham Biosciences) was used to facilitate detection of protein bands.
LNCaP cells were pretreated with indicated concentrations of the five analogs for 45 min, then stimulated with 100 nM PMA for 20 min. Cell lysates were immunoblotted for p-S916-PKD1 and p-S742-PKD1. GAPDH was blotted as a loading control. The experiment was repeated at least three times and representative blots are shown.
For orientation: Immunoblotting shows a protein as a band on a membrane.

In a further experiment the target is T2, PKD2 (Homo sapiens, UniProt Q9BZL6).
T2 sequence (Q9BZL6 1-878): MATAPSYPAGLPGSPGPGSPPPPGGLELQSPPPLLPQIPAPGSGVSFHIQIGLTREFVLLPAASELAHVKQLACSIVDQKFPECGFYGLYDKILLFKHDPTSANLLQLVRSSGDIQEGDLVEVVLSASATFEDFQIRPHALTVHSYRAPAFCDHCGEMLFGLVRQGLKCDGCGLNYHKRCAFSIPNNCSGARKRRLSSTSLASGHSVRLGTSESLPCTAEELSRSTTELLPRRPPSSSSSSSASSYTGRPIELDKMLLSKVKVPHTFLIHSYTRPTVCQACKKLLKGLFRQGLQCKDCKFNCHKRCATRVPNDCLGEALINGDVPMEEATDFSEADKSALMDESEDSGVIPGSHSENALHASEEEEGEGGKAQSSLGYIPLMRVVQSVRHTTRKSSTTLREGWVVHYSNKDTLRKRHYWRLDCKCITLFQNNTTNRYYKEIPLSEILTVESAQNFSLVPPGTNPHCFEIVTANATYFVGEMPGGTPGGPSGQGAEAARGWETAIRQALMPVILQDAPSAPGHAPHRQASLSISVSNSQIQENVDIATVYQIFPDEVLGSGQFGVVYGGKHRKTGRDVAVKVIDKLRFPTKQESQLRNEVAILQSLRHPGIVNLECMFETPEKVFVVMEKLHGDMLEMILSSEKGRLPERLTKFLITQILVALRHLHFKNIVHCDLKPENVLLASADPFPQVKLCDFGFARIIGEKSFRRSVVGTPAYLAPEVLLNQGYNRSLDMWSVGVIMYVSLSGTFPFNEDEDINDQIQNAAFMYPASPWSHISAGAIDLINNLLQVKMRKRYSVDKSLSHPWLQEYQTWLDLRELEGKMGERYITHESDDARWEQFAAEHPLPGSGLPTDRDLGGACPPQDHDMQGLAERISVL
Put plainly: In vitro radiometric PKD kinase assay. As to conditions: for IC50: radiometric kinase assay, mean ± S.E.M. The format is biochemical. Set-up: purchased SignalChem. As for the experimental part: In vitro radiometric kinase assays were conducted as previously described. Briefly, 1 μCi [γ-^32P] ATP (PerkinElmer Life Sciences), 70 μM ATP, 50 ng purified recombinant human PKD1 (Biomol International, Plymouth Meeting, PA), PKD2 (SignalChem, Richmond, BC, Canada), or CAMKIIα (Enzo Life Sciences) or 75 ng PKD3 (Enzo Life Sciences), and 2.5 μg syntide-2 (Sigma) in 50 μl kinase buffer containing 50 mM Tris-HCl, pH 7.5, 4 mM MgCl2, and 10 mM β-mercaptoethanol. For the CAMK assay, 0.5 mM CaCl2 and 30 ng/μl calmodulin were pre-incubated for 10 min on ice, and then added to each reaction mixture. The reaction was incubated at 30°C for 10 min, and 25 μl of the reaction mixture was then spotted onto Whatman P81 filter paper (Whatman Inc., Clifton, NJ). The filter papers were washed 3 times in 0.5% phosphoric acid, air-dried, and counted using a Beckman LS6500 multipurpose scintillation counter (Beckman).
The in vitro inhibitory activities of the novel compounds toward PKD were determined using radiometric PKD kinase activity assays. Recombinant human PKD1, -2, or -3 was incubated with the substrate, syntide-2, in the presence of 10 different concentrations of each compound. IC50 values were determined for each compound by plotting percent PKD activity versus compound concentration for each point.

Each structure is given as a SMILES string.

On to `COc1ccc2sc3c(c2c1)SCCNC3=O` [kb-NB165-09], for which the 50% inhibitory concentration (IC50) (commonly the midpoint of a concentration-inhibition curve) came out at 3.1 ± 0.5 µM on PKD1 and 142 ± 7.4 nM on PKD2.

On to `O=C1NCCSc2c1sc1ccc(O)c(I)c21` [kb-NB165-31], for which the results for the IC50 at PKD1 and on PKD2 were 8.6 ± 2 µM and 163 ± 20.5 nM, respectively.

As for `COc1ccc2sc3c(c2c1)SCCCNC3=O` [kb-NB184-02], the results for the IC50 at PKD1 and on PKD2 were 18.6 ± 2 µM and 463 ± 38.2 nM, respectively.

Turning to `O=C1NCCSc2c1sc1ccc(O)cc21` [kb-NB142-70], the results for the IC50 at PKD1 and on PKD2 were 2.2 ± 0.6 µM and 58.7 ± 4.2 nM, respectively. For the same molecule, the “fold stronger inhibition of PKD2 than CID755673” value at PKD2 is listed as “about 4 fold”.

With `O=C1NCCCSc2c1sc1ccc(O)cc21` [kb-NB165-92], the half-maximal inhibitory concentration (IC50) at PKD1 turned out to be 2.6 ± 0.7 µM; at PKD2, 101 ± 10.9 nM. In addition, the “fold reduction of potency for PKD2” value on PKD2 (versus kb-NB142-70) is recorded as 2-4 fold.
